Laboratory results: ChEMBL document CHEMBL1143421, “Population pharmacokinetics at two dose levels and pharmacodynamic profiling of flucloxacillin” (Antimicrob Agents Chemother, 2007)

How the values were obtained:
[1] = Total clearance in human at 1 g, iv infused for 5 mins; conditions: in vivo
Staphylococcus aureus [2] = test: Bactericidal activity against methicillin-susceptible Staphylococcus aureus infected human at MIC of 0.75 mg/l at 6 g, iv administered as continuous infusion for 4 hrs; format: functional
[3] = Mean residence time in human at 500 mg, iv infused for 5 mins; format: ADME, organism-based; conditions: in vivo
[4] = Renal clearance in human at 1000 mg, iv infused for 5 mins; format: ADME, organism-based, Kidney; conditions: in vivo, read-out: CL_renal (converted)
[5] = Volume of distribution at steady state in human at 500 mg, iv infused for 5 mins; format: ADME, organism-based; conditions: in vivo, read-out: Vdss
[6] = Terminal half life in human at 1000 mg, iv infused for 5 mins; format: ADME, organism-based; conditions: in vivo, read-out: beta t1/2 (converted)
[7] = Total body clearance in human at 500 mg, iv infused for 5 mins; conditions: in vivo
[8] = Renal clearance in human at a loading dose of 1 g and maintenance dose of 1.2 g/h for 3 hrs; format: ADME, organism-based, Kidney; conditions: in vivo, iv, read-out: CL_renal (converted)
Homo sapiens [9] = test: Metabolic stability in human assessed as urinary excretion of unchanged drug level at 500 mg, iv infused for 5 mins; format: ADME, organism-based, Urine; conditions: in vivo
[10] = Mean residence time in human at 1000 mg, iv infused for 5 mins; format: ADME, organism-based; conditions: in vivo
Staphylococcus aureus [11] = test: Bactericidal activity against methicillin-susceptible Staphylococcus aureus infected human at MIC of 0.25 mg/l at 1.5 g, iv administered every 6 hrs as 0.5 hrs infusion; format: functional
[12] = Plasma concentration in human at 1000 mg, iv infused for 5 mins; format: ADME, organism-based
Staphylococcus aureus [13] = test: Antibacterial activity against methicillin-susceptible Staphylococcus aureus; format: functional
Staphylococcus aureus [14] = test: Bacteriostatic activity against methicillin-susceptible Staphylococcus aureus infected human at MIC of 0.75 mg/l at 6 g, iv administered as continuous infusion for 4 hrs; format: functional
Homo sapiens [15] = test: Nonrenal clearance in human at 500 mg, iv infused for 5 mins; format: ADME, organism-based; conditions: in vivo
Staphylococcus aureus [16] = test: Bactericidal activity against methicillin-susceptible Staphylococcus aureus infected human at MIC of 0.75 mg/l at 2 g, iv administered every 8 hrs as 4 hrs infusion; format: functional
clinical = conditions: human, in vivo
Description: Total clearance in human at a loading dose of 1 g and maintenance dose of 1.2 g/h for 3 hrs

[17] = Terminal half life in human at 500 mg, iv infused for 5 mins; format: ADME, organism-based; conditions: in vivo, read-out: beta t1/2 (converted)
[18] = Renal clearance in human at 500 mg, iv infused for 5 mins; format: ADME, organism-based, Kidney; conditions: in vivo, read-out: CL_renal (converted)
[19] = Total body clearance in human at 1000 mg, iv infused for 5 mins; conditions: in vivo
[20] = Protein binding in human plasma; format: ADME, cell-free; conditions: read-out: PPB (converted)
Staphylococcus aureus [21] = test: Bactericidal activity against methicillin-susceptible Staphylococcus aureus infected human at MIC of 1 mg/l at 2 g, iv administered every 4 hrs as 0.5 hrs infusion; format: functional
Staphylococcus aureus [22] = test: Bacteriostatic activity against methicillin-susceptible Staphylococcus aureus infected human at MIC of 2 mg/l at 2 g, iv administered every 4 hrs as 0.5 hrs infusion; format: functional
[23] = Volume of distribution at steady state in human at 1000 mg, iv infused for 5 mins; format: ADME, organism-based; conditions: in vivo, read-out: Vdss
Staphylococcus aureus [24] = test: Bacteriostatic activity against methicillin-susceptible Staphylococcus aureus infected human at MIC of 1.5 mg/l at 2 g, iv administered every 8 hrs as 4 hrs infusions; format: functional
Staphylococcus aureus [25] = test: Bacteriostatic activity against methicillin-susceptible Staphylococcus aureus infected human at MIC of 0.75 mg/l at 1.5 g, iv administered every 6 hrs as 0.5 hrs infusion; format: functional
Homo sapiens [26] = test: Nonrenal clearance in human at 1000 mg, iv infused for 5 mins; format: ADME, organism-based; conditions: in vivo
[27] = Plasma concentration in human at 500 mg, iv infused for 5 mins; format: ADME, organism-based
Homo sapiens [28] = species on record: Homo sapiens; test: Nonrenal clearance in human at a loading dose of 1 g and maintenance dose of 1.2 g/h for 3 hrs; format: ADME, organism-based; conditions: in vivo
Homo sapiens [29] = test: Metabolic stability in human assessed as urinary excretion of unchanged drug level at 1000 mg, iv infused for 5 mins; format: ADME, organism-based, Urine; conditions: in vivo

clearance at 5 min [1]: 118 mL/min
MRT [3]: 1.18 h
CL renal at 5 min [4]: 88.2 mL/min
Vd [5]: 9.63 L
half-life [6]: 1.62 h
clearance at 5 min [7]: 136 mL/min
CL renal at 3 h [8]: 88.3 mL/min
Activity (Homo sapiens [9]): 0.66
MRT [10]: 1.22 h
concentration at 5 min [12]: 167 µg/mL
MIC90 (Staphylococcus aureus [13]): ≤ 0.5 µg/mL
fT>MIC (Staphylococcus aureus [14]): >=30%
CL (Homo sapiens [15]): 2.72 L/h
clearance at 3 h (clinical): 123 mL/min
half-life [17]: 1.4 h
CL renal at 5 min [18]: 89.5 mL/min
clearance at 5 min [19]: 136 mL/min
fraction unbound [20]: 0.054
fT>MIC (Staphylococcus aureus [22]): >=30%
Vd [23]: 9.97 L
fT>MIC (Staphylococcus aureus [24]): >=30%
CL (Homo sapiens [26]): 2.79 L/h
concentration at 5 min [27]: 86.8 µg/mL
CL (Homo sapiens [28]): 2.1 L/h
Activity (Homo sapiens [29]): 0.65
SMILES: Cc1onc(-c2c(F)cccc2Cl)c1C(=O)N[C@@H]1C(=O)N2[C@@H]1SC(C)(C)[C@@H]2C(=O)O [FLOXACILLIN]
fT>MIC (Staphylococcus aureus [2]): >=50%
fT>MIC (Staphylococcus aureus [11]): >=50%
fT>MIC (Staphylococcus aureus [16]): >=50%
fT>MIC (Staphylococcus aureus [21]): >=50%
Activity (Staphylococcus aureus [25]): >30%
